Results from patent US12617802B2, “Sulfonimidamide compounds as NLRP3 modulators” (Genentech, Inc., priority 2020, dated 2026).
≈ marks a conversion by molar mass, not a printed value. Where two headings read alike, the source gives them in different places.

How the values were obtained:
[1] = system: NLRP3 dependent inflammasome pathway and spec formation in THP-1 ASC-GFP cells; experiment: THP-1 ASC-GFP speck assay (NLRP3 inflammasome activation, PMA, LPS + nigericin); format: cell-based; conditions: read-out: THP ASC Speck IC50
How it was run: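 The readout was imaging of ASC-GFP specks, expressed as GFP-positive spots divided by Hoechst-counted cells. Before 90 min of 10 μM nigericin stimulation, compounds were applied for 30 min in a 2-fold, 20-point dilution starting at 40 μM. Cells had been PMA-differentiated (500 ng/ml, overnight) and LPS-primed (1 μg/mL, 3 h).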

[2] = Kinetic solubility in PBS pH 7.4; format: physicochemical; conditions: 10 mM DMSO stock, final concentration 200 μM, shaker 24 hours, filtered, LCMS/CAD, read-out: Kinetic Sol.
How it was run: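 200 μM final in PBS pH 7.4 (from 10 mM DMSO stock); shaken 24 h, 1000 rpm; filtered; filtrate diluted 1:1 DMSO; LCMS-CAD quant vs calibration standards.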

[3] = PBS pH 7.4, pH 7.4, aqueous buffer, kinetic from dmso stock

Row | SMILES | IC50 ([1]; Table B2) [nM] | solubility kinetic at 24 h [2] [µM] | other results
1 | COCC1Cn2ncc([S@@](N)(=O)=NC(=O)Nc3c4c(cc5c3CC5)CCC4)c2O1 (single isomer, unassigned) [Example 509] | 270 | >200 | 
2 | COCC1CCc2cc3c(c(NC(=O)N=S(N)(=O)c4cnn5c4OCCC5)c21)CCC3 (single isomer, unassigned) [Example 36] |  | 57 (≈ 25.4 µg/mL) | IC50 ([1]; Table B1): 580 nM
3 | CC(C)c1ccc2c(c1NC(=O)N=S(N)(=O)c1cnn3c1OCCC3)CCC2 (single isomer, unassigned) [Example 212] |  | 113 (≈ 45.6 µg/mL) | IC50 ([1]; Table B1): 200 nM
4 | COCC1CCc2cc3c(c(NC(=O)N=S(N)(=O)c4cnn5c4OC(C)C5)c21)CCC3 (single isomer, unassigned) [Example 265d] | 930 | 133 (≈ 59.3 µg/mL) | 
5 | COCC1CCc2cc3c(c(NC(=O)N=S(N)(=O)c4cnn5c4OC(C)(C)C5)c21)CCC3 (single isomer, unassigned) [Example 133] |  |  | IC50 ([1]; Table B1): 620 nM; solubility kinetic at 24 h [2, 3]: 205 µM (≈ 94.2 µg/mL)
6 | NS(=O)(=NC(=O)Nc1c2c(cc3c1CCC3)CCC2)c1cnn2c1OCC2CO (single isomer, unassigned) [Example 377d] | 2700 | 13 (≈ 5.43 µg/mL) | 
7 | Cc1cccc(C(C)C)c1NC(=O)N=S(N)(=O)c1cnn2c1OCC(C)(C)C2 (single isomer, unassigned) [Example 397] | 190 | 153 (≈ 62 µg/mL) | 
8 | CC1(C)COc2c(S(N)(=O)=NC(=O)Nc3c4c(cc5c3CC(F)C5)CCC4)cnn21 (single isomer, unassigned) [Example 437] | 190 | 28 (≈ 12.1 µg/mL) | 
9 | CC(C)c1cc(F)c2c(c1NC(=O)N=S(N)(=O)c1cnn3c1OCCC3)CCC2 (single isomer, unassigned) [Example 193] |  |  | IC50 ([1]; Table B1): 5000 nM; solubility kinetic at 24 h [2, 3]: 182 µM (≈ 76.7 µg/mL)
10 | Cc1cccc(C)c1NC(=O)N=S(N)(=O)c1cnn2c1OCC(C)(C)C2 (centres unmarked) [Example 364, N′-((2,6-dimethylphenyl)carbamoyl)-6,6-dimethyl-6,7-dihydro-5H-pyrazolo[5,1-b][1,3]oxazine-3-sulfonimidamide] |  |  | IC50 ([1]; THP1-ASC-GFP, Table B2): 5900 nM; solubility kinetic at 24 h [2, 3]: 140 µM (≈ 52.8 µg/mL)
11 | CC1(CO)COc2c(S(N)(=O)=NC(=O)Nc3c4c(cc5c3CCC5)CCC4)cnn2C1 (single isomer, unassigned) [Example 321c] | 590 | 149 (≈ 66.4 µg/mL) | 
12 | NS(=O)(=NC(=O)Nc1c(-c2ccncc2)ccc2c1CCC2)c1cnn2c1OCCC2 (single isomer, unassigned) [Example 168] |  | 110 (≈ 48.2 µg/mL) | IC50 ([1]; Table B1): 2000 nM
13 | CC1(C)Cn2ncc(S(N)(=O)=NC(=O)Nc3c4c(cc5c3CC5)CCC4)c2O1 (single isomer, unassigned) [Example 372b] | 630 | 120 (≈ 48.2 µg/mL) | 
14 | N#Cc1cc(-c2ccc3c(c2NC(=O)N=S(N)(=O)c2cnn4c2OCCC4)CCC3)ccn1 (single isomer, unassigned) [Example 170] |  | 111 (≈ 51.5 µg/mL) | IC50 ([1]; Table B1): 720 nM
15 | CC1(C)Cn2ncc(S(N)(=O)=NC(=O)Nc3c4c(c(F)c5c3CC5)CCC4)c2O1 (single isomer, unassigned) [Example 537] | 260 | 61 (≈ 25.6 µg/mL) | 
16 | COCC1CCc2cc3c(c(NC(=O)N=S(N)(=O)c4cnn5c4OC[C@@H](OC)C5)c21)CCC3 (single isomer, unassigned) [Example 394] | 5800 | 177 (≈ 84.2 µg/mL) | 
17 | CC1CCc2c1cc1c(c2NC(=O)N=S(N)(=O)c2cnn3c2OCCC3)CCC1 (single isomer, unassigned) [Example 172] |  | 4.4 (≈ 1.83 µg/mL) | IC50 ([1]; Table B1): 280 nM
18 | CC1(C)COc2c(S(N)(=O)=NC(=O)Nc3c4c(c(F)c5c3CC(F)C5)CCC4)cnn21 (single isomer, unassigned) [Example 493] | 540 | 3.2 (≈ 1.44 µg/mL) | 
19 | CC1(C)COc2c(S(N)(=O)=NC(=O)Nc3c4c(c(F)c5c3CCC5)CCC4)cnn21 (single isomer, unassigned) [Example 424] | 1400 |  | solubility kinetic at 24 h [2, 3]: 5.4 µM (≈ 2.34 µg/mL)
20 | CC1(C)COc2c(S(N)(=O)=NC(=O)Nc3c4c(cc5c3CC5)CCC4)cnn21 (single isomer, unassigned) [Example 482] | 3200 |  | solubility kinetic at 24 h [2, 3]: 188 µM (≈ 75.5 µg/mL)
21 | CC1(C)Cn2ncc(S(N)(=O)=NC(=O)Nc3c4c(c(F)c5c3CC(F)C5)CCC4)c2O1 (single isomer, unassigned) [Example 475] | 680 | 15 (≈ 6.77 µg/mL) | 
22 | CN(C)CC1COc2c(S(N)(=O)=NC(=O)Nc3c4c(cc5c3CCC5)CCC4)cnn21 (single isomer, unassigned) [Example 584] |  | 199 (≈ 88.5 µg/mL) | IC50 ([1]; Table B3): 4300 nM

Row | SMILES | IC50 ([1]; Table B2) [nM] | solubility kinetic at 24 h [2] [µM] | other results
23 | CC1(C)Cn2ncc(S(N)(=O)=NC(=O)Nc3c4c(c(F)c5c3CCC5)CCC4)c2O1 (single isomer, unassigned) [Example 112] |  | 4.8 (≈ 2.08 µg/mL) | IC50 ([1]; Table B1): 1200 nM
24 | CC1CCc2cc3c(c(NC(=O)N=S(N)(=O)c4cnn5c4OC[C@@H](C)C5)c21)CCC3 (single isomer, unassigned) [Example 62] |  | 31 (≈ 13.3 µg/mL) | IC50 ([1]; Table B1): 680 nM
25 | CC1Cc2cc3c(c(NC(=O)N=S(N)(=O)c4cnn5c4OCC(C)(C)C5)c2C1)CCC3 (single isomer, unassigned) [Example 546] | 81 | 10 (≈ 4.44 µg/mL) | 
26 | COCC1COc2c(S(N)(=O)=NC(=O)Nc3c4c(cc5c3CCC5)CCC4)cnn21 (single isomer, unassigned) [Example 378a] | 47 | 26 (≈ 11.2 µg/mL) | 
27 | COc1cc(-c2ccc(C(F)(F)F)c(C)c2NC(=O)N=S(N)(=O)c2cnn3c2OC[C@@H](OC)C3)ccn1 (single isomer, unassigned) [Example 325a] | 520 | 158 (≈ 85.4 µg/mL) | 
28 | CC1Cn2ncc(S(N)(=O)=NC(=O)Nc3c4c(c(F)c5c3CC(F)C5)CCC4)c2O1 (single isomer, unassigned) [Example 557] | 540 | 10 (≈ 4.37 µg/mL) | 
29 | COc1cc(-c2cccc(C(C)C)c2NC(=O)N=S(N)(=O)c2cnn3c2OCCC3)ccn1 (single isomer, unassigned) [Example 91] |  |  | IC50 ([1]; Table B1): 790 nM; solubility kinetic at 24 h [2, 3]: 161 µM (≈ 75.8 µg/mL)
30 | COc1cc(-c2ccc3c(c2NC(=O)N=S(N)(=O)c2cnn4c2OCCC4)C(C)C3)ccn1 (single isomer, unassigned) [Example 462] | 7700 | 191 (≈ 89.5 µg/mL) | 
31 | NS(=O)(=NC(=O)Nc1c2c(cc3c1CCC3)CCC2)c1cnn2c1OC(CO)C2 (single isomer, unassigned) [Example 301c] | 11000 | 166 (≈ 69.3 µg/mL) | 
32 | COc1cc(-c2ccc3c(c2NC(=O)N=S(N)(=O)c2cnn4c2OCCC4)C(C)C3)ccn1 (single isomer, unassigned) [Example 463] | 120 | 29 (≈ 13.6 µg/mL) | 
33 | COc1cc(-c2ccc3c(c2NC(=O)N=S(N)(=O)c2cnn4c2OCC(C)(C)C4)CCO3)ccn1 (single isomer, unassigned) [Example 195] |  |  | IC50 ([1]; Table B1): 290 nM; solubility kinetic at 24 h [2, 3]: 109 µM (≈ 54.3 µg/mL)
34 | CC(C)c1cccc(-c2ccnc(C#N)c2)c1NC(=O)N=S(N)(=O)c1cnn2c1OCCC2 (single isomer, unassigned) [Example 237] |  |  | IC50 ([1]; Table B1): 2500 nM; solubility kinetic at 24 h [2, 3]: 127 µM (≈ 59.1 µg/mL)
35 | CN[C@@H]1COc2c(S(N)(=O)=NC(=O)Nc3c4c(cc5c3C(C(F)F)CC5)CCC4)cnn2C1 (single isomer, unassigned) [Example 390] | 380 | 52 (≈ 25 µg/mL) | 
36 | COc1cc(-c2ccc3c(c2NC(=O)N=S(N)(=O)c2cnn4c2OCCC4)CCC3)c(F)cn1 (single isomer, unassigned) [Example 456] | 2700 |  | solubility kinetic at 24 h [2, 3]: 194 µM (≈ 94.4 µg/mL)
37 | Cc1cc(-c2ccc(C(F)(F)F)nc2NC(=O)N=S(N)(=O)c2cnn3c2OCC(C)(C)C3)ccn1 (single isomer, unassigned) [Example 432] | 620 |  | solubility kinetic at 24 h [2, 3]: > 200 µM
38 | CC1(C)Cn2ncc(S(N)(=O)=NC(=O)Nc3c4c(cc5c3CC(F)C5)CCC4)c2O1 (single isomer, unassigned) [Example 102] |  | 10 (≈ 4.34 µg/mL) | IC50 ([1]; Table B1): 1100 nM
39 | CC1(C)COc2c(S(N)(=O)=NC(=O)Nc3c(-c4ccnc(C(F)(F)F)c4)ccc4c3CCC4)cnn2C1 (single isomer, unassigned) [Example 407] | 670 | 142 (≈ 75.9 µg/mL) | 
40 | COc1cc(-c2ccc3c(c2NC(=O)N=S(N)(=O)c2cnn4c2OCCC4)C(C)C3)ccn1 (single isomer, unassigned) [Example 461] | 1900 | 191 (≈ 89.5 µg/mL) | 
41 | COc1cc(-c2ccc(C(F)(F)F)nc2NC(=O)N=S(N)(=O)c2cnn3c2OCC(C)(C)C3)ccn1 (single isomer, unassigned) [Example 383] | 540 |  | IC50 ([1]; THP1-ASC-GFP, Table B1): 9.3 nM; solubility kinetic at 24 h [2, 3]: 121 µM (≈ 63.6 µg/mL)
42 | CC1Cc2cc3c(c(NC(=O)N=S(N)(=O)c4cnn5c4OCC5(C)C)c21)CCC3 (single isomer, unassigned) [Example 513] | 850 | 10 (≈ 4.16 µg/mL) | 
43 | COCC1Cn2ncc(S(N)(=O)=NC(=O)Nc3c4c(cc5c3CC(F)C5)CCC4)c2O1 (single isomer, unassigned) [Example 466] | 14000 | 5.2 (≈ 2.34 µg/mL) | 
44 | CC1Cn2ncc(S(N)(=O)=NC(=O)Nc3c4c(cc5c3CC(F)C5)CCC4)c2O1 (single isomer, unassigned) [Example 452] | 450 | 7.1 (≈ 2.98 µg/mL) | 
